{"source": "patent US20040067252A1", "about": "“Novel modified release formulation” (priority 2001, published 2004)", "origin": "cited, not measured here", "conditions": "at 25° C.", "data": [{"smiles": "Cn1c(=O)c2[nH]cnc2n(C)c1=O", "note": "[theophylline]", "values": [{"measurement": "water solubility", "result": 8.3, "unit": "mg/mL"}]}]}
